Reference: the supplement of paper PMC10477900

Assays:
HCT116 [1] = details: 72 h
Method: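 HCT116 control and MTA1-KO (CRISPR) HCT116 cells were seeded in 384-well plates (800 cells/well), treated 16 h later with 237 metabolism-related anticancer drugs at five doses (10 uM, 2 uM, 400 nM, 80 nM, 16 nM) for 72 h, two replicates; viability by CCK8. Values are % inhibition of viability relative to untreated cells, plus fitted IC50.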

HCT116 [2] = experiment: viability inhibition vs untreated; higher = more cytotoxic; details: 72 h

Structure (SMILES): C/C(=C1/C(=O)Nc2ccc(NC(N)=O)cc21)c1ccc[nH]1 [BX517]
- IC50 (HCT116 [1]; genotype: MTA1-KO): 7.24 µM
- IC50 (HCT116 [1]; genotype: control): 6.88 µM
- viability inhibition (HCT116 [2]; genotype: MTA1-KO, 16 nM): -1.27%
- viability inhibition (HCT116 [2]; genotype: MTA1-KO, 80 nM): -4.96%
- viability inhibition (HCT116 [2]; genotype: MTA1-KO, 400 nM): -15%
- viability inhibition (HCT116 [2]; genotype: MTA1-KO, 2000 nM): -7.43%
- viability inhibition (HCT116 [2]; genotype: MTA1-KO, 10000 nM): 62.3%
- viability inhibition (HCT116 [2]; genotype: control, 16 nM): 7.33%
- viability inhibition (HCT116 [2]; genotype: control, 80 nM): -2.63%
- viability inhibition (HCT116 [2]; genotype: control, 400 nM): 0.244%
- viability inhibition (HCT116 [2]; genotype: control, 2000 nM): 10.4%
- viability inhibition (HCT116 [2]; genotype: control, 10000 nM): 67.6%

Structure (SMILES): C=C(C)[C@H]1Cc2c(ccc3c2O[C@@H]2COc4cc(OC)c(OC)cc4[C@@H]2C3=O)O1 [Rotenone]
- IC50 (HCT116 [1]; genotype: MTA1-KO): 0.0743 µM
- IC50 (HCT116 [1]; genotype: control): < 0.016 µM
- viability inhibition (HCT116 [2]; genotype: MTA1-KO, 16 nM): 16.6%
- viability inhibition (HCT116 [2]; genotype: MTA1-KO, 80 nM): 34.1%
- viability inhibition (HCT116 [2]; genotype: MTA1-KO, 400 nM): 35.3%
- viability inhibition (HCT116 [2]; genotype: MTA1-KO, 2000 nM): 43.4%
- viability inhibition (HCT116 [2]; genotype: MTA1-KO, 10000 nM): 51.6%
- viability inhibition (HCT116 [2]; genotype: control, 16 nM): 63.1%
- viability inhibition (HCT116 [2]; genotype: control, 80 nM): 57.1%
- viability inhibition (HCT116 [2]; genotype: control, 400 nM): 46.9%
- viability inhibition (HCT116 [2]; genotype: control, 2000 nM): 45.4%
- viability inhibition (HCT116 [2]; genotype: control, 10000 nM): 65.4%

Structure (SMILES): Nc1nc(Cl)nc2c1ncn2[C@@H]1O[C@H](CO)[C@@H](O)[C@@H]1F [Clofarabine]
- IC50 (HCT116 [1]; genotype: MTA1-KO): 0.257 µM
- IC50 (HCT116 [1]; genotype: control): 0.141 µM
- viability inhibition (HCT116 [2]; genotype: MTA1-KO, 16 nM): -2.4%
- viability inhibition (HCT116 [2]; genotype: MTA1-KO, 80 nM): 4.43%
- viability inhibition (HCT116 [2]; genotype: MTA1-KO, 400 nM): 55.5%
- viability inhibition (HCT116 [2]; genotype: MTA1-KO, 2000 nM): 80.4%
- viability inhibition (HCT116 [2]; genotype: MTA1-KO, 10000 nM): 75.8%
- viability inhibition (HCT116 [2]; genotype: control, 16 nM): -9.53%
- viability inhibition (HCT116 [2]; genotype: control, 80 nM): -5%
- viability inhibition (HCT116 [2]; genotype: control, 400 nM): 88.4%
- viability inhibition (HCT116 [2]; genotype: control, 2000 nM): 88.9%
- viability inhibition (HCT116 [2]; genotype: control, 10000 nM): 92.8%

Structure (SMILES): CC(=O)N=c1sc(S(N)(=O)=O)nn1C [Methazolamide]
- IC50 (HCT116 [1]; genotype: MTA1-KO): > 10 µM
- IC50 (HCT116 [1]; genotype: control): > 10 µM
- viability inhibition (HCT116 [2]; genotype: MTA1-KO, 16 nM): -8.89%
- viability inhibition (HCT116 [2]; genotype: MTA1-KO, 80 nM): -28.2%
- viability inhibition (HCT116 [2]; genotype: MTA1-KO, 400 nM): -14.6%
- viability inhibition (HCT116 [2]; genotype: MTA1-KO, 2000 nM): -23.2%
- viability inhibition (HCT116 [2]; genotype: MTA1-KO, 10000 nM): -21.9%
- viability inhibition (HCT116 [2]; genotype: control, 16 nM): 6.26%
- viability inhibition (HCT116 [2]; genotype: control, 80 nM): -6.63%
- viability inhibition (HCT116 [2]; genotype: control, 400 nM): -3.65%
- viability inhibition (HCT116 [2]; genotype: control, 2000 nM): -3.04%
- viability inhibition (HCT116 [2]; genotype: control, 10000 nM): -0.243%

Structure (SMILES): Nc1cccc(S(=O)(=O)N2CCCN(S(=O)(=O)c3ccc4c(c3)OCCO4)CC2)c1 [DASA58]
- IC50 (HCT116 [1]; genotype: MTA1-KO): 6.95 µM
- IC50 (HCT116 [1]; genotype: control): > 10 µM
- viability inhibition (HCT116 [2]; genotype: MTA1-KO, 16 nM): -0.728%
- viability inhibition (HCT116 [2]; genotype: MTA1-KO, 80 nM): -19.4%
- viability inhibition (HCT116 [2]; genotype: MTA1-KO, 400 nM): -15.8%
- viability inhibition (HCT116 [2]; genotype: MTA1-KO, 2000 nM): -12.1%
- viability inhibition (HCT116 [2]; genotype: MTA1-KO, 10000 nM): 75%
- viability inhibition (HCT116 [2]; genotype: control, 16 nM): -13.2%
- viability inhibition (HCT116 [2]; genotype: control, 80 nM): -25.9%
- viability inhibition (HCT116 [2]; genotype: control, 400 nM): -13.7%
- viability inhibition (HCT116 [2]; genotype: control, 2000 nM): -17.4%
- viability inhibition (HCT116 [2]; genotype: control, 10000 nM): -6.72%

Structure (SMILES): N#Cc1c(O)c2c(-c3ccc(-c4ccccc4O)cc3)csc2[nH]c1=O
- IC50 (HCT116 [1]; genotype: MTA1-KO): > 10 µM
- IC50 (HCT116 [1]; genotype: control): > 10 µM
- viability inhibition (HCT116 [2]; genotype: MTA1-KO, 16 nM): 7.25%
- viability inhibition (HCT116 [2]; genotype: MTA1-KO, 80 nM): 0.475%
- viability inhibition (HCT116 [2]; genotype: MTA1-KO, 400 nM): 5.93%
- viability inhibition (HCT116 [2]; genotype: MTA1-KO, 2000 nM): 6.59%
- viability inhibition (HCT116 [2]; genotype: MTA1-KO, 10000 nM): 21.8%
- viability inhibition (HCT116 [2]; genotype: control, 16 nM): -9.79%
- viability inhibition (HCT116 [2]; genotype: control, 80 nM): -10.7%
- viability inhibition (HCT116 [2]; genotype: control, 400 nM): -8.84%
- viability inhibition (HCT116 [2]; genotype: control, 2000 nM): -17.7%
- viability inhibition (HCT116 [2]; genotype: control, 10000 nM): 3.16%

Structure (SMILES): Cc1c(C(=O)N2CCOc3ccc(-c4ccc(N)nc4)cc3C2)ccc(S(C)(=O)=O)c1F [XL388]
- IC50 (HCT116 [1]; genotype: MTA1-KO): 4.64 µM
- IC50 (HCT116 [1]; genotype: control): > 10 µM
- viability inhibition (HCT116 [2]; genotype: MTA1-KO, 16 nM): -7.29%
- viability inhibition (HCT116 [2]; genotype: MTA1-KO, 80 nM): 5.97%
- viability inhibition (HCT116 [2]; genotype: MTA1-KO, 400 nM): 0.224%
- viability inhibition (HCT116 [2]; genotype: MTA1-KO, 2000 nM): 19%
- viability inhibition (HCT116 [2]; genotype: MTA1-KO, 10000 nM): 74.8%
- viability inhibition (HCT116 [2]; genotype: control, 16 nM): 0.193%
- viability inhibition (HCT116 [2]; genotype: control, 80 nM): -2.53%
- viability inhibition (HCT116 [2]; genotype: control, 400 nM): -7.3%
- viability inhibition (HCT116 [2]; genotype: control, 2000 nM): -11.7%
- viability inhibition (HCT116 [2]; genotype: control, 10000 nM): 47%

Structure (SMILES): NS(=O)(=O)c1cc(Cl)c(Cl)c(S(N)(=O)=O)c1 [Dichlorphenamide]
- IC50 (HCT116 [1]; genotype: MTA1-KO): > 10 µM
- IC50 (HCT116 [1]; genotype: control): > 10 µM
- viability inhibition (HCT116 [2]; genotype: MTA1-KO, 16 nM): 6.61%
- viability inhibition (HCT116 [2]; genotype: MTA1-KO, 80 nM): -0.189%
- viability inhibition (HCT116 [2]; genotype: MTA1-KO, 400 nM): -0.404%
- viability inhibition (HCT116 [2]; genotype: MTA1-KO, 2000 nM): -3.85%
- viability inhibition (HCT116 [2]; genotype: MTA1-KO, 10000 nM): 16.5%
- viability inhibition (HCT116 [2]; genotype: control, 16 nM): -20.7%
- viability inhibition (HCT116 [2]; genotype: control, 80 nM): -6.03%
- viability inhibition (HCT116 [2]; genotype: control, 400 nM): -16.5%
- viability inhibition (HCT116 [2]; genotype: control, 2000 nM): -12.6%
- viability inhibition (HCT116 [2]; genotype: control, 10000 nM): -18.3%

Structure (SMILES): C[C@]12CC[C@H](O)C[C@H]1CC[C@@H]1[C@@H]2CC[C@]2(C)[C@@](O)(c3ccoc3)CC[C@]12O [Rostafuroxin]
- IC50 (HCT116 [1]; genotype: MTA1-KO): > 10 µM
- IC50 (HCT116 [1]; genotype: control): > 10 µM
- viability inhibition (HCT116 [2]; genotype: MTA1-KO, 16 nM): 11.8%
- viability inhibition (HCT116 [2]; genotype: MTA1-KO, 80 nM): 13.5%
- viability inhibition (HCT116 [2]; genotype: MTA1-KO, 400 nM): 10%
- viability inhibition (HCT116 [2]; genotype: MTA1-KO, 2000 nM): 14.5%
- viability inhibition (HCT116 [2]; genotype: MTA1-KO, 10000 nM): 30.6%
- viability inhibition (HCT116 [2]; genotype: control, 16 nM): -0.895%
- viability inhibition (HCT116 [2]; genotype: control, 80 nM): 11.7%
- viability inhibition (HCT116 [2]; genotype: control, 400 nM): 13.9%
- viability inhibition (HCT116 [2]; genotype: control, 2000 nM): 5.09%
- viability inhibition (HCT116 [2]; genotype: control, 10000 nM): 13%
